In patent publication US6358885B1, “Substituted phenylheterocyclic herbicides” (Mississippi State University, priority 1992, dated 2002):

Experiments:
barnyardgrass = test: Test B preemergence/postemergence greenhouse plant response rating 0 to 10; assay type: in vivo, Echinochloa crus-galli; conditions: for Plant response rating, Barnyardgrass: 0 to 10 scale
How it was run: (§1)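 Test chemicals were sprayed onto freshly planted seed and, concurrently, onto young plants between the one and four leaf stage. After a twelve- to sixteen-day greenhouse period, each species was visually compared with untreated controls.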

rape = test: as above; assay type: in vivo, Brassica napus; conditions: for Plant response rating, Rape: 0 to 10 scale; for Plant response rating (0 to 10 scale), Rape: Rate 100 g/ha
How it was run: as §1

wild buckwheat = test: as above; assay type: in vivo, Polygonum convolvulus; conditions: for Plant response rating, Wild buckwheat: 0 to 10 scale; for Plant response rating (0 to 10 scale), Wild buckwheat: Rate 100 g/ha
How it was run: as §1

bedstraw = test: Test C preemergence/postemergence greenhouse plant response rating 0 to 100; assay type: in vivo, Galium aparine; conditions: POSTEMERGENCE; for Plant response rating, Bedstraw: 0 to 100 scale
Description: (§2) The compounds evaluated in this test were formulated in a non-phytoxic solvent and applied to the soil surface before plant seedlings emerged (preemergence application), to water that covered the soil surface (flood application), and to plants that were in the one-to-four leaf stage (postemergence application). A sandy loam soil was used for the preemergence and postemergence tests, while a silt loam soil was used in the flood test. Water depth was approximately 2.5 cm for the flood test and was maintained at this level for the duration of the test. Plant species in the preemergence and postemergence tests consisted of barley (Hordeum vulgare), bedstraw (Galium aparine), blackgrass (Alopecurus myosuroides), chickweed (Stellaria media), corn (Zea mays), cotton (Gossypium hirsutum), crabgrass (Digitaria sanguinalis), downy brome (Bromus tectorum), giant foxtail (Setaria faberii), lambsquarters (Chenopodium album), morningglory (Ipomoea hederacea), pigweed ([…]), rape (Brassica napus), ryegrass (Lolium multiflorum), sorghum (Sorghum bicolor), soybean (Glycine max), speedwell (Veronica persica), sugar beet (Beta vulgaris), velvetleaf (Abutilon theophrasti), wheat (Triticum aestivum), wild buckwheat (Polygonum convolvulus), and wild oat (Avena fatua). All plant species were planted one day before application of the compound for the preemergence portion-of this test. Plantings of these species were adjusted to produce plants of appropriate size for the post-emergence portion of the test. […] All plant species were grown using normal greenhouse practices. Visual evaluations of injury expressed on treated plants, when compared to untreated controls, were recorded approximately fourteen to twenty one days after application of the test compound. […] A dash (-) response means no test result.

corn = test: as above; assay type: in vivo, Zea mays; conditions: POSTEMERGENCE; for Plant response rating, Corn: 0 to 100 scale
Description: as §2

crabgrass = test: as above; assay type: in vivo, Digitaria sanguinalis; conditions: POSTEMERGENCE; for Plant response rating, Crabgrass: 0 to 100 scale
Description: as §2

downy brome = test: as above; assay type: in vivo, Bromus tectorum; conditions: POSTEMERGENCE; for Plant response rating Downy Brome: 0 to 100 scale
Description: as §2

ryegrass = test: as above; assay type: in vivo, Lolium multiflorum; conditions: POSTEMERGENCE; for Plant response rating Ryegrass: 0 to 100 scale
Description: as §2

sugar beet = test: as above; assay type: in vivo, Beta vulgaris; conditions: POSTEMERGENCE; for Plant response rating, Sugar beet: 0 to 100 scale
Description: as §2

wild oat = test: as above; assay type: in vivo, Avena fatua; conditions: POSTEMERGENCE; for Plant response rating, Wild oat: 0 to 100 scale
Description: as §2

umbrella sedge = test: Test C flood test plant response rating 0 to 100; assay type: in vivo, Cyperus difformis; conditions: for Plant response rating (0 to 100), Umbrella sedge: under POSTEMERGENCE head (flood test species); for Plant response rating Umbrella sedge: flood test species listed under POSTEMERGENCE, 0 to 100 scale
Description: as §2

chickweed = test: Test B preemergence/postemergence greenhouse plant response rating 0 to 10; assay type: in vivo, Stellaria media; conditions: for Plant response rating, Chickweed: 0 to 10 scale
How it was run: as §1

SMILES: C#CC(C)Oc1cc(-c2nn3c(c2Cl)CCCC3)c(F)cc1Cl (stereo not shown) [Compound 36]
- Plant response rating, Barnyardgrass (barnyardgrass; POSTEMERGENCE, Rate 50 g/ha): 6
- Plant response rating, Barnyardgrass (barnyardgrass; POSTEMERGENCE, Rate 200 g/ha): 9
- Plant response rating, Barnyardgrass (barnyardgrass; PREEMERGENCE, Rate 50 g/ha): 3
- Plant response rating, Barnyardgrass (barnyardgrass; Rate 200 g/ha, PREEMERGENCE): 5
- Plant response rating, Rape (rape; POSTEMERGENCE, Rate 50 g/ha): 10
- Plant response rating, Rape (rape; PREEMERGENCE, Rate 50 g/ha): 5
- Plant response rating, Rape (rape; Rate 200 g/ha, POSTEMERGENCE): 10
- Plant response rating, Rape (rape; Rate 200 g/ha, PREEMERGENCE): 8
- Plant response rating, Wild buckwheat (wild buckwheat; POSTEMERGENCE, Rate 50 g/ha): 10
- Plant response rating, Wild buckwheat (wild buckwheat; PREEMERGENCE, Rate 50 g/ha): 10
- Plant response rating, Wild buckwheat (wild buckwheat; Rate 200 g/ha, POSTEMERGENCE): 10
- Plant response rating, Wild buckwheat (wild buckwheat; Rate 200 g/ha, PREEMERGENCE): 10
- Plant response rating, Bedstraw (bedstraw; 62 g/ha): 100
- Plant response rating, Bedstraw (bedstraw; 125 g/ha): 100
- Plant response rating (0 to 100), Bedstraw (bedstraw; Rate 16 g/ha): 90
- Plant response rating (0 to 100), Bedstraw (bedstraw; Rate 31 g/ha): 100
- Plant response rating, Corn (corn; 62 g/ha): 50
- Plant response rating, Corn (corn; 125 g/ha): 60
- Plant response rating (0 to 100), Corn (corn; Rate 16 g/ha): 30
- Plant response rating (0 to 100), Corn (corn; Rate 31 g/ha): 40
- Plant response rating, Crabgrass (crabgrass; 62 g/ha): 50
- Plant response rating, Crabgrass (crabgrass; 125 g/ha): 60
- Plant response rating (0 to 100), Crabgrass (crabgrass; Rate 16 g/ha): 20
- Plant response rating (0 to 100), Crabgrass (crabgrass; Rate 31 g/ha): 30
- Plant response rating Downy Brome (downy brome; 62 g/ha): 40
- Plant response rating Downy Brome (downy brome; 125 g/ha): 50
- Plant response rating (0 to 100), Downy Brome (downy brome; Rate 16 g/ha): 20
- Plant response rating (0 to 100), Downy Brome (downy brome; Rate 31 g/ha): 30
- Plant response rating Ryegrass (ryegrass; 62 g/ha): 30
- Plant response rating Ryegrass (ryegrass; 125 g/ha): 50
- Plant response rating (0 to 100), Ryegrass (ryegrass; Rate 16 g/ha): 20
- Plant response rating (0 to 100), Ryegrass (ryegrass; Rate 31 g/ha): 30
- Plant response rating, Sugar beet (sugar beet; 62 g/ha): 100
- Plant response rating, Sugar beet (sugar beet; 125 g/ha): 100
- Plant response rating (0 to 100), Sugar beet (sugar beet; Rate 16 g/ha): 95
- Plant response rating (0 to 100), Sugar beet (sugar beet; Rate 31 g/ha): 100
- Plant response rating, Wild oat (wild oat; 62 g/ha): 30
- Plant response rating, Wild oat (wild oat; 125 g/ha): 50
- Plant response rating (0 to 100), Wild oat (wild oat; Rate 16 g/ha): 10
- Plant response rating (0 to 100), Wild oat (wild oat; Rate 31 g/ha): 20
- Plant response rating (0 to 100), Umbrella sedge (umbrella sedge; Rate 16 g/ha): 0
- Plant response rating (0 to 100), Umbrella sedge (umbrella sedge; Rate 31 g/ha): 20
- Plant response rating Umbrella sedge (umbrella sedge; 62 g/ha): 70
- Plant response rating Umbrella sedge (umbrella sedge; 125 g/ha): 80

SMILES: Clc1ccc(-c2nc3n(c2Br)CCCC3)c(Cl)c1 [Compound 2]
- Plant response rating (0 to 10 scale), Barnyardgrass (barnyardgrass; POSTEMERGENCE, Rate 50 g/ha): 3
- Plant response rating (0 to 10 scale), Barnyardgrass (barnyardgrass; POSTEMERGENCE, Rate 100 g/ha): 3
- Plant response rating, Barnyardgrass (barnyardgrass; POSTEMERGENCE, Rate 200 g/ha): 3
- Plant response rating, Barnyardgrass (barnyardgrass; POSTEMERGENCE, Rate 400 g/ha): 5
- Plant response rating, Barnyardgrass (barnyardgrass; PREEMERGENCE, Rate 50 g/ha): 0
- Plant response rating (0 to 10 scale), Barnyardgrass (barnyardgrass; PREEMERGENCE, Rate 100 g/ha): 0
- Plant response rating, Barnyardgrass (barnyardgrass; PREEMERGENCE, Rate 400 g/ha): 2
- Plant response rating, Barnyardgrass (barnyardgrass; Rate 200 g/ha, PREEMERGENCE): 0
- Plant response rating (0 to 10 scale), Chickweed (chickweed; POSTEMERGENCE, Rate 50 g/ha): 1
- Plant response rating (0 to 10 scale), Chickweed (chickweed; POSTEMERGENCE, Rate 100 g/ha): 2
- Plant response rating, Chickweed (chickweed; POSTEMERGENCE, Rate 200 g/ha): 2
- Plant response rating, Chickweed (chickweed; POSTEMERGENCE, Rate 400 g/ha): 2
- Plant response rating, Chickweed (chickweed; PREEMERGENCE, Rate 50 g/ha): 0
- Plant response rating (0 to 10 scale), Chickweed (chickweed; PREEMERGENCE, Rate 100 g/ha): 0
- Plant response rating, Chickweed (chickweed; PREEMERGENCE, Rate 400 g/ha): 0
- Plant response rating, Chickweed (chickweed; Rate 200 g/ha, PREEMERGENCE): 0
- Plant response rating, Rape (rape; POSTEMERGENCE, Rate 50 g/ha): 5
- Plant response rating (0 to 10 scale), Rape (rape; POSTEMERGENCE): 3
- Plant response rating, Rape (rape; POSTEMERGENCE, Rate 200 g/ha): 9
- Plant response rating, Rape (rape; POSTEMERGENCE, Rate 400 g/ha): 9
- Plant response rating, Rape (rape; PREEMERGENCE, Rate 50 g/ha): 0
- Plant response rating (0 to 10 scale), Rape (rape; PREEMERGENCE): 0
- Plant response rating, Rape (rape; PREEMERGENCE, Rate 400 g/ha): 0
- Plant response rating, Rape (rape; Rate 200 g/ha, PREEMERGENCE): 0
- Plant response rating, Wild buckwheat (wild buckwheat; POSTEMERGENCE, Rate 50 g/ha): 10
- Plant response rating (0 to 10 scale), Wild buckwheat (wild buckwheat; POSTEMERGENCE): 10
- Plant response rating, Wild buckwheat (wild buckwheat; POSTEMERGENCE, Rate 200 g/ha): 10
- Plant response rating, Wild buckwheat (wild buckwheat; POSTEMERGENCE, Rate 400 g/ha): 10
- Plant response rating, Wild buckwheat (wild buckwheat; PREEMERGENCE, Rate 50 g/ha): 0
- Plant response rating (0 to 10 scale), Wild buckwheat (wild buckwheat; PREEMERGENCE): 0
- Plant response rating, Wild buckwheat (wild buckwheat; PREEMERGENCE, Rate 400 g/ha): 0
- Plant response rating, Wild buckwheat (wild buckwheat; Rate 200 g/ha, PREEMERGENCE): 0

SMILES: C#CCN1C(=O)COc2cc(F)c(-c3nn4c(c3Br)CCCC4)cc21 [Compound 56]
- Plant response rating, Barnyardgrass (barnyardgrass; POSTEMERGENCE, Rate 10 g/ha): 3
- Plant response rating, Barnyardgrass (barnyardgrass; POSTEMERGENCE, Rate 50 g/ha): 4
- Plant response rating, Barnyardgrass (barnyardgrass; PREEMERGENCE, Rate 10 g/ha): 0
- Plant response rating, Barnyardgrass (barnyardgrass; PREEMERGENCE, Rate 50 g/ha): 0
- Plant response rating, Chickweed (chickweed; POSTEMERGENCE, Rate 10 g/ha): 9
- Plant response rating, Chickweed (chickweed; POSTEMERGENCE, Rate 50 g/ha): 10
- Plant response rating, Chickweed (chickweed; PREEMERGENCE, Rate 10 g/ha): 9
- Plant response rating, Chickweed (chickweed; PREEMERGENCE, Rate 50 g/ha): 10
- Plant response rating, Rape (rape; POSTEMERGENCE, Rate 10 g/ha): 10
- Plant response rating, Rape (rape; POSTEMERGENCE, Rate 50 g/ha): 10
- Plant response rating, Rape (rape; PREEMERGENCE, Rate 50 g/ha): 3
- Plant response rating, Wild buckwheat (wild buckwheat; POSTEMERGENCE, Rate 10 g/ha): 10
- Plant response rating, Wild buckwheat (wild buckwheat; POSTEMERGENCE, Rate 50 g/ha): 10
- Plant response rating, Wild buckwheat (wild buckwheat; PREEMERGENCE, Rate 50 g/ha): 9
- Plant response rating, Bedstraw (bedstraw; 62 g/ha): 100
- Plant response rating (0 to 100), Bedstraw (bedstraw; Rate 1 g/ha): 70
- Plant response rating (0 to 100), Bedstraw (bedstraw; Rate 4 g/ha): 80
- Plant response rating (0 to 100), Bedstraw (bedstraw; Rate 16 g/ha): 95
- Plant response rating, Corn (corn; 62 g/ha): 50
- Plant response rating (0 to 100), Corn (corn; Rate 1 g/ha): 20
- Plant response rating (0 to 100), Corn (corn; Rate 4 g/ha): 30
- Plant response rating (0 to 100), Corn (corn; Rate 16 g/ha): 40
- Plant response rating, Crabgrass (crabgrass; 62 g/ha): 20
- Plant response rating (0 to 100), Crabgrass (crabgrass; Rate 1 g/ha): 0
- Plant response rating (0 to 100), Crabgrass (crabgrass; Rate 4 g/ha): 0
- Plant response rating (0 to 100), Crabgrass (crabgrass; Rate 16 g/ha): 10
- Plant response rating Downy Brome (downy brome; 62 g/ha): 70
- Plant response rating (0 to 100), Downy Brome (downy brome; Rate 1 g/ha): 40
- Plant response rating (0 to 100), Downy Brome (downy brome; Rate 4 g/ha): 50
- Plant response rating (0 to 100), Downy Brome (downy brome; Rate 16 g/ha): 60
- Plant response rating Ryegrass (ryegrass; 62 g/ha): 50
- Plant response rating (0 to 100), Ryegrass (ryegrass; Rate 1 g/ha): 20
- Plant response rating (0 to 100), Ryegrass (ryegrass; Rate 4 g/ha): 40
- Plant response rating (0 to 100), Ryegrass (ryegrass; Rate 16 g/ha): 40
- Plant response rating, Sugar beet (sugar beet; 62 g/ha): 100
- Plant response rating (0 to 100), Sugar beet (sugar beet; Rate 1 g/ha): 100
- Plant response rating (0 to 100), Sugar beet (sugar beet; Rate 4 g/ha): 100
- Plant response rating (0 to 100), Sugar beet (sugar beet; Rate 16 g/ha): 100
- Plant response rating, Wild oat (wild oat; 62 g/ha): 60
- Plant response rating (0 to 100), Wild oat (wild oat; Rate 1 g/ha): 30
- Plant response rating (0 to 100), Wild oat (wild oat; Rate 4 g/ha): 40
- Plant response rating (0 to 100), Wild oat (wild oat; Rate 16 g/ha): 50
